Tests used:
[1] = Absorption at 340nm of NAD or NADP dissolved in aqueous strong alkali; assay type: physicochemical; conditions: e.g., sodium hydroxide or potassium hydroxide, then gradually decreased
Description: Such changes continuously occur over several hours and the higher an alkali concentration is, the greater change is. It is, therefore, extremely difficult to find out such a condition that an enzyme reaction is stopped without any influence upon absorption of coenzyme, when an aqueous solution of a strong alkali having no buffer action is employed.

[2] = Stability of absorption intensity of coenzyme at 340nm after dissolution in CAPS buffer solution; assay type: physicochemical; conditions: for O.D. change at 340nm (change in absorbance per hour, 1 cm cell): coenzyme 1.1 × 10^-4 M, over 3 hours
Experimental: 1) Coenzyme dissolved in the indicated buffer solution to 1.1 ×
2) Change in absorbance per hour given when measured by the use of a cell
with optical path length of 1 cm.
3) Changes in absorbance of ±0.002A or less over 3 hours immediately
after dissolution are expressed as "not changed".

GOT = assay: Inhibitory action of CAPS buffer solution on dehydrogenase reaction, serum GOT diagnostic kit; assay type: biochemical, human
Description: (§1) For measuring serum GOT or GPT activity, the reaction can be carried out through addition of malic dehydrogenase to the reaction medium in case of GOT and LDH in case of GPT, together with the enzyme substrates such as α-ketoglutaric acid and L-aspartic acid for the former enzyme or α-ketoglutaric acid and L-alanine for the latter, and a reduced form of NAD (hereinafter referred to as NADH) in either case. Oxaloacetic acid derived from aspartic acid with GOT (in case of GPT, pyruvic acid derived from alanine, the GPT case being hereinafter referred to in the parenthesis) is converted to malic acid (lacetic acid) with malic dehydrogenase (lactic dehydrogenase) and NADH concurrently with oxidation of NADH to NAD, which results in decrease of absorbance at 340nm arising from NADH. An amount of the oxaloacetic acid (pyruvic acid) produced by GOT (GPT) is stoichiometrically equal to that of the NADH to be oxidized and a GOT (GPT) activity can be, therefore, determined from an oxidized amount of NADH which is obtained from an absorbance decrease at 340nm.
(§2) Four enzymes which are widely employed for examination in clinical diagnosis among various serum enzymes, were tested on the inhibitory actions by CAPS buffer solution. […]

ALD = assay: Inhibitory action of CAPS buffer solution on dehydrogenase reaction, serum ALD diagnostic kit; assay type: biochemical, human
Description: In measuring ALD activity, one can carry out by adding to a reaction medium fructose-1,6-diphosphate which is a substrate, togethe with triose phosphate isomerase (hereinafter referred to as TMI) and glycerol-1-phosphate dehydrogenase (hereinafter referred to as GDH). In this system, the products by ALD are converted to dioxyacetone phosphoric acid, which is then converted to glycerol-1-phosphate by the action of GDH and NADH. NADH is simultaneously oxidized to NAD. Hydrolysis of 1 mole of fructose-1,6-diphosphate with ALD results in oxidation of 2 moles of NADH.
Four enzymes which are widely employed for examination in clinical diagnosis among various serum enzymes, were tested on the inhibitory actions by CAPS buffer solution. Some of our experiments are summarized in the Table 1 wherein changes in absorbance at 340nm during the whole process of the reaction are automatically recorded and expressed in terms of inhibition degree by adding serum to a reaction mixture for proceeding the reaction and then adding thereto CAPS buffer solution with varied concentrations, pH values and amounts added.
1) Diagnostic kits available from Calbiochem U.S.A., used for measuring
GOT, GPT and CPK and diagnostic kits available from Boeringer-Manheim,
West Germany, used for measuring ALD, standard human serum
(Caltrol-Abnormal) available from Calbiochem used for serum. […]

GPT = assay: Inhibitory action of CAPS buffer solution on dehydrogenase reaction, serum GPT diagnostic kit; assay type: biochemical, human
Description: as §1, §2

CPK = assay: Inhibitory action of CAPS buffer solution on dehydrogenase reaction, serum CPK diagnostic kit; assay type: biochemical, human
Experimental: CPK in serum is increased along with injury of skeletal muscle or heart muscle. For determination of CPK activity, creatine phosphoric acid and adenosine-5'-diphosphate (hereinafter referred to as ADP) are employed as substrates and further hexokinase (hereinafter referred to as HK), glucose, glucose-6-phosphate dehydrogenase (hereinafter referred to as G6PDH) and NADP are added to the reaction medium. By the action of CPK, ADP is converted to adenosine-5'-triphosphate (hereinafter referred to as ATP), while glucose in the reaction medium is converted to glucose-6-phosphate by the action of the ATP and HK. Thereafter, the glucose-6-phosphate is converted to 6-phosphogluconic acid by the action of G6PDH and NADP and NADP is converted to a reduced form of NADP (hereinafter referred to as NADPH), along with the conversion, which results in increased absorbance at 340nm. The ATP amount produced by CPK is stoichiometrically equal to that of NADP to be reduced.
as §2

[3] = Influence of alkaline buffer solutions on absorption intensity of coenzyme at 340nm; assay type: physicochemical; conditions: for Absorption of NAD at 340nm: added to an enzyme reaction mixture containing EDTA
Description: Such increasing action on absorption of NAD may continuously vary with the lapse of time and it is, therefore, difficult to correct influence caused therefrom.

dehydrogenase reaction = assay: Aqueous alkali solution of p-chloromercurybenzoate as stopping agent for dehydrogenase reaction; assay type: biochemical; conditions: reaction mixture of commercially available diagnostic kits
Description: It is also reported in the art that an aqueous alkali solution of p-chloromercurybenzoate is applicable as a stopping agent for dehydrogenase reaction (E. Raabo, Scandinavian Journal of Clinical & Laboratory Investigation, 17, (1965), 265). […] Then, the prior solution seems to be of no practical use.

[4] = CAPS buffer solution 0.25M,pH12.5

For `NC(=O)c1ccc[n+]([C@@H]2O[C@H](COP(=O)([O-])OP(=O)(O)OC[C@H]3O[C@@H](n4cnc5c(N)ncnc54)[C@H](OP(=O)(O)O)[C@@H]3O)[C@@H](O)[C@H]2O)c1` [NADP, nicotinamide adenine dinucleotide phosphate], the “Time to peak of absorption intensity at 340nm” value [1] was 10 to 20 min, the “O.D. change at 340nm (change in absorbance per hour, 1 cm cell)” value [2, 4] was no more than 0.005 A/hr/cm and the “Stability of coenzyme in CAPS buffer solution” value ([2]; pH 12.5 or higher) was “also reduced”.

For `NC(=O)c1ccc[n+]([C@@H]2O[C@H](COP(=O)([O-])OP(=O)(O)OC[C@H]3O[C@@H](n4cnc5c(N)ncnc54)[C@H](O)[C@@H]3O)[C@@H](O)[C@H]2O)c1` [NAD, nicotinamide-adenine dinucleotide], the “Time to peak of absorption intensity at 340nm” value [1] was 10 to 20 min, the “O.D. change at 340nm (change in absorbance per hour, 1 cm cell)” value ([2]; CAPS buffer solution 0.25M,pH12.0) was no more than 0.005 A/hr/cm and the “O.D. change at 340nm (change in absorbance per hour, 1 cm cell)” value [2, 4] was no more than 0.010 A/hr/cm. The “O.D. change at 340nm (change in absorbance per hour, 1 cm cell)” value ([2]; CAPS buffer solution 0.33M,pH11.5) was no more than 0.005 A/hr/cm, the “O.D. change at 340nm (change in absorbance per hour, 1 cm cell)” value ([2]; CAPS buffer solution 0.5M,pH11.5) was no more than 0.010 A/hr/cm and the “Stability of coenzyme in CAPS buffer solution” value ([2]; concentration 0.33M or more or pH 12 or higher) was “somewhat reduced”.

With `[Na+].[OH-]` [NaOH soln., sodium hydroxide] the “Complete inhibition concentration with aqueous NaOH soln. (Final concentration), GOT” value (GOT) was greater than 0.15 N, the “Complete inhibition concentration with aqueous NaOH soln. (Final concentration), ALD” value (ALD) was greater than 0.1 N and the “Complete inhibition concentration with aqueous NaOH soln. (Final concentration), GPT” value (GPT) was greater than 0.15 N. The “Complete inhibition concentration with aqueous NaOH soln. (Final concentration), CPK” value (CPK) was greater than 0.1 N.

With `N=C(N)N` [guanidine buffer solution, guanidine] the “Absorption of NAD” value ([3]; at the concentration and pH value to inhibit an action of an enzyme) was “may increase absorption of NAD”.

With `O=C(O)c1cc[c]([Hg][Cl])cc1` [p-chloromercurybenzoate] the “Inhibition of dehydrogenase reaction” value (dehydrogenase reaction) was “only partial inhibition”.

For `N=C(N)NCCC[C@H](N)C(=O)O` [arginine buffer solution, arginine], the “Absorption of NAD at 340nm” value [3] was “increase in absorption of NAD at 340nm”.

With `NCC(=O)O` [glycine buffer solution, glycine] the “Absorption of NAD at 340nm” value [3] was “increase in absorption of NAD at 340nm”.
